Test results as given in patent US7582418B2, “Antimicrobial chelates” (Albion Laboratories, Inc., priority 2004, dated 2009).

How the values were obtained:
Assay type in all cases: cell-based
Candida albicans [1] = test: Zone inhibition assay (filter paper disc area diffusion); details: distance from edge of disc to growth; discs saturated with 100 mg/ml solution (antibiotic control discs 5-30 μg); 24 hours at 37° C.
Experimental: (§1) Two methods were used to examine whether an inhibitory effect from the zinc containing compounds was observable and if there was an inhibitory effect, whether the effect was bactericidal (bacteria-killing) or bacteriostatic (bacterial-inhibiting) in nature. In the first method, two Gram-positive bacteria strains (Staphlococcus aureus, Streptococcus pyogenes), two Gram-negative bacteria strains (Salmonella typhimerium, Eschrichia coli), and one common yeast strain (Candida albicans) were grown nutrient agar plates, except in the case of S. pyogenes which was grown on blood agar plates.
(§2) Zone inhibition assays were conducted with eighteen different samples in accordance with the methodology described by Maruzella, J. C. and Henry, P. A., J. Am. Pharm. Assoc. 47:894 (1958) for filter paper disc area diffusion. Sample solutions were prepared to approximate 100 mg/mL concentrations.
(§3) Organisms were grown for 24 hours at 37° C. on blood agar plates with the exception of Candida albicans which was grown in a standard methods agar (SMA) medium. Solutions of each sample were prepared using sterile DD water at a concentration of 100 mg/ml. Paper discs were saturated with solution from each sample and dried aseptically. […] Following drying of solution derived discs, all discs were placed on agar plates with each of the five different microorganisms.

Eschrichia coli [2] = test: as above; details: distance from edge of disc to bacterial growth; discs saturated with 100 mg/ml solution (antibiotic control discs 5-30 μg); 24 hours at 37° C.
Experimental: as §1, §2, §3

Salmonella typhimerium = test: as above; details: distance from edge of disc to bacterial growth; discs saturated with 100 mg/ml solution (antibiotic control discs 5-30 μg); 24 hours at 37° C.
Experimental: as §1, §2, §3

Staphlococcus aureus [3] = test: as above; details: distance from edge of disc to bacterial growth; discs saturated with 100 mg/ml solution (antibiotic control discs 5-30 μg); 24 hours at 37° C.
Experimental: as §1, §2, §3

Streptococcus pyogenes = test: as above; details: distance from edge of disc to bacterial growth; blood agar; discs saturated with 100 mg/ml solution (antibiotic control discs 5-30 μg); 24 hours at 37° C.
Experimental: as §1, §2, §3

Candida albicans [4] = test: Turbidity assay (TSB tubes, plated out); set-up: key: no-growth (NG) which corresponds with excellent inhibitory activity; partial growth (PG) which corresponds with good inhibitory activity; complete growth (CG) which corresponds with little or no inhibitory activity; details: TSB tube with 1.0 mL sample solution (100 mg/mL) and 100 μL 24-hour culture; after 24 hours plated, incubated 24 hours
Experimental: (§4) In the second method, turbidity assays were conducted. Tryptic soy broth (TSB) tubes were inoculated with 1.0 mL of sample solutions (100 mg/mL) and 50 μL of 24-hour cultures of each microbe. In the case of C. albicans, 100 μL of 24-hour culture was used. After 24 hours, an aliquot from each tube was plated out onto nutrient media and incubated for 24 hours. Following incubation, colonies on each plate were observed and characterized as one of three categories: no-growth (NG) which corresponds with excellent inhibitory activity, partial growth (PG) which corresponds with good inhibitory activity, complete growth (CG) which corresponds with little or no inhibitory activity.
(§5) S. pyongenes, could not be grown in the solution, so the turbidity assay was not conducted for that microorganism. When the data from both zone inhibition (Table 2) and turbidity (Table 3) assays are compared, an indication of the inhibition activity may be evident.

Eschrichia coli [5] = test: Turbidity assay (TSB tubes, plated out); set-up: key: no-growth (NG) which corresponds with excellent inhibitory activity; partial growth (PG) which corresponds with good inhibitory activity; complete growth (CG) which corresponds with little or no inhibitory activity; details: TSB tube with 1.0 mL sample solution (100 mg/mL) and 50 μL 24-hour culture; after 24 hours plated, incubated 24 hours
Experimental: as §4, §5

Staphlococcus aureus [6] = test: Turbidity assay (TSB tubes, plated out); set-up: key: no-growth (NG) which corresponds with excellent inhibitory activity; partial growth (PG) which corresponds with good inhibitory activity; complete growth (CG) which corresponds with little or no inhibitory activity; details: TSB tube with 1.0 mL sample solution (100 mg/mL) and 50 μL 24-hour culture; after 24 hours plated, incubated 24 hours
Experimental: as §4, §5

Compound	inhibitory zone, Candida albicans (Candida albicans [1])	inhibitory zone, Eschrichia coli (Eschrichia coli [2])	inhibitory zone, Salmonella typhimerium (Salmonella typhimerium)	inhibitory zone, Staphlococcus aureus (Staphlococcus aureus [3])	inhibitory zone, Streptococcus pyogenes (Streptococcus pyogenes)	colony growth category, Candida albicans (Candida albicans [4])	colony growth category, Eschrichia coli (Eschrichia coli [5])	colony growth category, Staphlococcus aureus (Staphlococcus aureus [6])
NCC(=O)[O-].[Na+] [Sample 16, Sodium Glycinate]	no activity	no activity	no activity	no activity	no activity			
CC1(C)S[C@@H]2[C@H](NC(=O)[C@H](N)c3ccc(O)cc3)C(=O)N2[C@H]1C(=O)O [Sample 10, Amoxicillin]	no activity	3.5 millimeters	8 millimeters	7.5 millimeters				
CC(=O)[O-].CC(=O)[O-].[Zn+2] [Sample 3, Zinc Acetate]	2 millimeters	3 millimeters	3 millimeters	2 millimeters	3.5 millimeters			
[Cl-].[Na+] [Sample 14, Sodium Chloride]	no activity	no activity	no activity	no activity	no activity			
NCC(=O)[O-].NCC(=O)[O-].[Zn+2] [Sample 5, Zinc Bis-Glycinate]	0.5 millimeters	3.5 millimeters	3.5 millimeters	3.5 millimeters	4 millimeters	NG	NG	PG (1)
NC[C@@H]1O[C@H](O[C@H]2[C@@H](O)[C@H](O[C@@H]3[C@@H](O)[C@H](N)C[C@H](N)[C@H]3O[C@H]3O[C@H](CN)[C@@H](O)[C@H](O)[C@H]3N)O[C@@H]2CO)[C@H](N)[C@@H](O)[C@@H]1O [Sample 8, Neomycin]	no activity	3 millimeters	6 millimeters	6 millimeters	3 millimeters			
O=C([O-])CCCCC1CCSS1.O=C([O-])CCCCC1CCSS1.[Zn+2] (centres unmarked) [Sample 6, Zinc Lipoate]	no activity	.5 millimeters	2 millimeters	1.5 millimeters	1 millimeters			
[Cl-].[Cl-].[Zn+2] [Sample 1, Zinc Chloride]	4.5 millimeters	4 millimeters	3.5 millimeters	6 millimeters	2.5 millimeters	PG	PG	PG
Cc1cc(NS(=O)(=O)c2ccc(N)cc2)no1 [Sample 12, Sulfamethoxazole]	no activity	3 millimeters	4 millimeters	3.5 millimeters	7.5 millimeters	CG	CG	CG
O=C([O-])CC(O)(CC(=O)[O-])C(=O)[O-].O=C([O-])CC(O)(CC(=O)[O-])C(=O)[O-].[Zn+2].[Zn+2].[Zn+2] [Sample 2, Zinc Citrate]	no activity	1.5 millimeters		1 millimeters	3.5 millimeters			
CN[C@H](CC(C)C)C(=O)N[C@H]1C(=O)N[C@@H](CC(N)=O)C(=O)N[C@H]2C(=O)N[C@H]3C(=O)N[C@H](C(=O)N[C@H](C(=O)O)c4cc(O)cc(O)c4-c4cc3ccc4O)[C@H](O)c3ccc(c(Cl)c3)Oc3cc2cc(c3O[C@@H]2O[C@H](CO)[C@@H](O)[C@H](O)[C@H]2O[C@H]2C[C@](C)(N)[C@H](O)[C@H](C)O2)Oc2ccc(cc2Cl)[C@H]1O [Sample 13, Vancomycin]	no activity	no activity	no activity	5 millimeters	5 millimeters			
CN(C)[C@@H]1C(O)=C(C(N)=O)C(=O)[C@@]2(O)C(O)=C3C(=O)c4c(O)cccc4[C@@](C)(O)[C@H]3C[C@@H]12 [Sample 11, Tetracycline]	no activity	5.5 millimeters	7 millimeters	7.5 millimeters	no activity			
O=S(=O)([O-])[O-].[Na+].[Na+] [Sample 17, Sodium Sulfate]	no activity	no activity	no activity	no activity	no activity			
O=C([O-])CC(O)(CC(=O)[O-])C(=O)[O-].[Na+].[Na+].[Na+] [Sample 18, Sodium Citrate]	no activity	no activity		no activity	no activity			
Zinc Gluconate [Sample 7]	no activity	2 millimeters	2.75 millimeters	3 millimeters	5 millimeters			
O=C(O)c1cn(C2CC2)c2cc(N3CCNCC3)c(F)cc2c1=O [Sample 9, Ciproflaxicin]	no activity	5 millimeters	10 millimeters	8.5 millimeters	3 millimeters			
